Patent publication EP0722725A1, “VASCULAR SMOOTH MUSCLE CELL MIGRATION INHIBITOR” (TEIJIN LIMITED, priority 1994, dated 1996)

Tests used:
[1] = Acute toxicity; format: in vivo; settings: no method, species or dose given
[2] = test system: vascular smooth muscle cell derived from a human normal aorta; test: Measurement of the inhibition activity on cell migration (PDGF-mediated, Transwell Chamber); format: cell-based; settings: concentration of 10^-7M; migration mediated by human PDGF 10 ng/ml, 6 hours; compared with the cell migration counts where no test compound was added; read-out: inhibition activities on cell migration
Experimental: A Transwell Chamber (Costar Co., registered trademark) was used to measure the inhibitory activity. The chamber is divided into a lower and a upper chamber with an 8-µm pore size membrane filter (PVP-free polycarbonate filter, Nucleopore Co., registered trademark), and the filter was pretreated on its lower surface with 5 µg of rat tail collagen type 1 (Becton Dickinson Co.). To the upper chamber was added 100 µl of a 1.5 x 10^6/ml suspension of cells in a mixed solution of DMEM (supplied by Flow Laboratories Co.) and 0.1% BSA (supplied by Nakarai Tesque Co.), and a solution of human PDGF (supplied by Becton Dickinson Co.), which is prepared by diluting with the same mixed solution to giving the final concentration of 10 ng/ml, is filled in the lower chamber (600 µl). […] After the chamber was allowed to stand under 5%-CO2 atmosphere at 37°C For 6 hours, the filter was taken out. […] After cells adhered on the upper surface of the filter were removed with a cotton swab, the cells migrated to the lower surface were counted under a high-magnifying-power microscope (x200, x400) in terms of cell nuclei. Usually, five fields were counted per filter. Cell migration was expressed by the average cell count of the five fields ± the standard deviation. The significant difference was examined by Student's two-tailed t-test.

Question: For `CCCC[C@H](C)C[C@H](O)/C=C/[C@@H]1[C@H]2CC(CCc3ccc(C(=O)OC)cc3)=C[C@H]2C[C@H]1O` [compound 5e], which acute toxicity [1] is on record?
Answer: neither of the compounds 5e and 6b had problem with acute toxicity

Question: And the inhibition at 0.1 µM [2]?
Answer: 13.9%
